The text below walks through data of patent publication US12419861B2, “Method for preventing and/or treating chronic traumatic encephalopathy-i” (EUSTRALIS PHARMACEUTICALS LIMITED (trading as Pressura …, priority 2013, dated 2025).

For the experiment, the system named is tau phosphorylation. In words: Tau phosphorylation after concussive injury in the rat (rodent model of concussion, FIG. 3). As to conditions: NK1 receptor antagonist administered at 30 min after induction of injury, assessed at 3 day time point, compared with injured untreated animals. The experiment is classed as in vivo. An excerpt:
Note that concussive injury in the rat causes extensive tau phosphorylation (C,D) by 3 days after the concussive event compared to non-injured animals (A,B). […] Concussion results in perivascular substance P release Having established that hyperphosphorylated tau accumulates perivascularly following concussive injury, we used an animal model of concussion to investigate whether concussion causes perivascular release of substance P. We developed a rodent model of concussion to replicate the concussive event (Donkin et al., 2004, 7th International Neurotrauma Symposium, pp 75-78, Medimond Publishers, Bologna, Italy) and subsequently determined whether substance P was released after such an event. There was a clear increase in brain perivascular substance P immunoreactivity after the concussive event (FIG. 2). […] Administration of a NK1 receptor antagonist prevents tau phosphorylation Having shown that mechanical injury causes release of substance P after concussive injury, we then investigated whether a substance P NK1 receptor antagonist reduces tau hyperphosphorlation after concussive injury. […] Note that concussive injury in the rat causes extensive tau phosphorylation (C,D) by 3 days after the concussive event compared to non-injured animals (A,B). […] Thus, administration of an NK1 receptor antagonist prevents tau hyperphosphorylation and thus prevents the development of CTE.

`CC(=O)N[C@@H](Cc1c[nH]c2ccccc12)C(=O)O` [n-acetyl-L-tryptophan, N-acetyl-L-tryptophan]: the “effect on tau phosphorylation after concussive injury” value is on record as “almost complete inhibition of tau phosphorylation”.
